Experiment in all cases: ≥ marks a high value that may be exact or a test limit, other limits are often not marked, values filed in µg/mL are converted to µM
Assay [1] has as its system Pseudomonas aeruginosa ATCC 9027.
The subject of assay [2] is Staphylococcus aureus ATCC 6538.
The subject of assay [3] is Bacillus subtilis KCTC 3068.
Assay [4] has as its system Escherichia coli KCTC 1682.
The subject of assay [5] is Pseudomonas aeruginosa KCTC 1637.
In assay [6] the test system is Salmonella typhimurium KCTC 1926.
The subject of assay [7] is Staphylococcus aureus KCTC 1621.
In assay [8] the test system is Staphylococcus epidermidis KCTC 1917.
Assay [9] concerns Escherichia coli DH5alpha.

Each structure is given as a SMILES string. Values after ≈ are worked out from the molar mass of the structure shown.

The term MIC denotes the least concentration at which growth counts as inhibited. Read a low MIC as greater potency.

Turning to `CC(C)C[C@H](NC(=O)[C@H](C)NC(=O)[C@H](CCCCN)NC(=O)[C@H](CC(C)C)NC(=O)[C@H](C)NC(=O)[C@H](CCCCN)NC(=O)[C@H](CC(C)C)NC(=O)[C@H](CC(C)C)NC(=O)[C@H](C)NC(=O)[C@H](CCCCN)NC(=O)[C@H](CC(C)C)NC(=O)[C@H](C)NC(=O)[C@H](CCCCN)NC(=O)[C@H](C)NC(=O)[C@@H](N)Cc1ccccc1)C(N)=O` [FAKALKALLKALKAL], the figures for the minimal inhibitory concentration (MIC) in [1] and in assay [2] were more than 125 µM and 3.13 µM (≈ 5 µg/mL), respectively.

Consider `CC(C)C[C@H](NC(=O)[C@H](CC(C)C)NC(=O)[C@H](CCCCN)NC(=O)[C@H](CCCCN)NC(=O)[C@H](C)NC(=O)[C@H](CC(C)C)NC(=O)[C@H](CCCCN)NC(=O)[C@H](C)NC(=O)[C@@H](N)Cc1ccccc1)C(N)=O` [FAKLAKKLL], for which the minimal inhibitory concentration (MIC) in assay [1] turned out to be 97 µM (≈ 99.9 µg/mL); in assay [2] it was 194 µM (≈ 200 µg/mL).

Consider `CC(C)C[C@H](NC(=O)[C@H](C)NC(=O)[C@H](Cc1ccccc1)NC(=O)[C@H](CCCCN)NC(=O)[C@H](CCCCN)NC(=O)[C@H](CC(C)C)NC(=O)[C@H](C)NC(=O)[C@H](CCCCN)NC(=O)[C@H](C)NC(=O)[C@H](CC(C)C)NC(=O)[C@H](CC(C)C)NC(=O)[C@H](CCCCN)NC(=O)[C@H](C)NC(=O)[C@@H](N)Cc1ccccc1)C(N)=O` [FAKLLAKALKKFAL], for which the figures for the minimum inhibitory concentration (MIC) in assay [1] and in [2] were 16 µM (≈ 25 µg/mL) and 32 µM (≈ 50 µg/mL), respectively.

`CC(C)C[C@H](NC(=O)[C@H](CCCCN)NC(=O)[C@H](CC(C)C)NC(=O)[C@H](CCCCN)NC(=O)[C@H](C)NC(=O)[C@H](CC(C)C)NC(=O)[C@H](CCCCN)NC(=O)[C@H](C)NC(=O)[C@H](CC(C)C)NC(=O)[C@H](CC(C)C)NC(=O)[C@H](CCCCN)NC(=O)[C@H](C)NC(=O)[C@@H](N)Cc1ccccc1)C(N)=O` [FAKLLAKLAKLKL]: the MIC worked out at 34.3 µM (≈ 50 µg/mL) in [1] and 3.43 µM (≈ 5 µg/mL) in [2].

For `CC(C)C[C@H](NC(=O)[C@H](C)NC(=O)[C@H](Cc1c[nH]c2ccccc12)NC(=O)[C@H](CCCCN)NC(=O)[C@H](CC(N)=O)NC(=O)[C@H](Cc1c[nH]c2ccccc12)NC(=O)[C@H](CCCCN)NC(=O)[C@H](CCCCN)NC(=O)[C@H](CCCN=C(N)N)NC(=O)[C@@H](N)Cc1ccccc1)C(=O)N[C@@H](CO)C(=O)N[C@@H](CCCN=C(N)N)C(N)=O` [FRKKWNKWALSR], the minimal inhibitory concentration (MIC) in assay [3] was 8 µM (≈ 13 µg/mL); in assay [4], 4 µM (≈ 6.48 µg/mL); in assay [5] it was 16 µM (≈ 25.9 µg/mL); in [6], 4 µM (≈ 6.48 µg/mL); in [7], 16 µM (≈ 25.9 µg/mL); in assay [8] it was 8 µM (≈ 13 µg/mL).

As to `CC[C@H](C)[C@H](N)C(=O)NCC(=O)N[C@@H](CCCCN)C(=O)N[C@@H](CCCCN)C(=O)N[C@@H](Cc1ccccc1)C(=O)N[C@@H](CCCCN)C(=O)N[C@@H](CCCN=C(N)N)C(=O)N[C@H](C(=O)N[C@H](C(=O)N[C@@H](CCCCN)C(=O)N[C@@H](CCCN=C(N)N)C(=O)N[C@H](C(=O)N[C@@H](CCCCN)C(=O)N[C@@H](CCCCN)C(=O)N[C@@H](Cc1c[nH]c2ccccc12)C(=O)N[C@@H](CC(C)C)C(=O)N[C@@H](CCCN=C(N)N)C(=O)N[C@@H](CCCCN)C(=O)N[C@@H](CC(C)C)C(=O)O)[C@@H](C)CC)C(C)C)[C@@H](C)CC` [IGKKFKRIVKRIKKWLRKL], the MIC in [3] came to 2 µM (≈ 4.88 µg/mL); in [4], 4 µM (≈ 9.76 µg/mL); in assay [5] it was 4 µM (≈ 9.76 µg/mL); in [6] it was 2 µM (≈ 4.88 µg/mL); in [7], 2 µM (≈ 4.88 µg/mL); in [8], 4 µM (≈ 9.76 µg/mL).

With `CC[C@H](C)[C@H](N)C(=O)N[C@@H](CC(C)C)C(=O)NCC(=O)N[C@@H](CCCCN)C(=O)N[C@H](C(=O)N[C@@H](C)C(=O)N[C@@H](CCC(=O)O)C(=O)NCC(=O)N[C@H](C(=O)N[C@@H](CCCCN)C(=O)N[C@@H](CO)C(=O)N[C@@H](CC(C)C)C(=O)N[C@@H](Cc1ccccc1)C(N)=O)[C@@H](C)CC)[C@@H](C)CC` [ILGKIAEGIKSLF], the MIC in assay [4] is not below 64 µM; in assay [5], not below 32 µM; in assay [6], not below 64 µM; in assay [7], not below 64 µM; in assay [8] it was not below 64 µM.

In the case of `CC[C@H](C)[C@H](N)C(=O)N[C@@H](CC(C)C)C(=O)N[C@@H](CCCCN)C(=O)N[C@@H](Cc1c[nH]c2ccccc12)C(=O)N[C@@H](CCCCN)C(=O)N[C@@H](Cc1c[nH]c2ccccc12)C(=O)N[C@@H](CCCCN)C(=O)N[C@@H](Cc1c[nH]c2ccccc12)C(=O)N[C@@H](Cc1c[nH]c2ccccc12)C(=O)N[C@@H](CCCCN)C(=O)N[C@@H](Cc1c[nH]c2ccccc12)C(=O)N[C@@H](CCCN=C(N)N)C(=O)N[C@@H](CCCN=C(N)N)C(N)=O` [ILKWKWKWWKWRR], the MIC in assay [3] was determined as 2.5 µM (≈ 5 µg/mL); in assay [4], 5 µM (≈ 10 µg/mL); in [5], 5 µM (≈ 10 µg/mL); in assay [6], 2.5 µM (≈ 5 µg/mL); in assay [7], 2.5 µM (≈ 5 µg/mL); in assay [8] it was 5 µM (≈ 10 µg/mL).

Turning to `CC[C@H](C)[C@H](N)C(=O)N[C@@H](CC(C)C)C(=O)N1CCC[C@H]1C(=O)N[C@@H](Cc1c[nH]c2ccccc12)C(=O)N[C@@H](CCCCN)C(=O)N[C@@H](CCCCN)C(=O)N1CCC[C@H]1C(=O)N[C@@H](CCCCN)C(=O)N[C@@H](CCCCN)C(=O)N1CCC[C@H]1C(=O)N[C@@H](CCCCN)C(=O)N[C@@H](CCCN=C(N)N)C(=O)N[C@@H](CCCN=C(N)N)C(N)=O` [ILPWKKPKKPKRR], the MIC in assay [3] turned out to be 5.97 µM (≈ 9.99 µg/mL); in assay [4], 5.97 µM (≈ 9.99 µg/mL); in assay [5] it was 5.97 µM (≈ 9.99 µg/mL); in assay [6], 2.98 µM (≈ 5 µg/mL); in assay [7], 5.97 µM (≈ 9.99 µg/mL); in assay [8], 2.98 µM (≈ 5 µg/mL).

For the compound `CC[C@H](C)[C@H](N)C(=O)N[C@@H](CC(C)C)C(=O)N1CCC[C@H]1C(=O)N[C@@H](Cc1c[nH]c2ccccc12)C(=O)N[C@@H](CCCCN)C(=O)N[C@@H](Cc1c[nH]c2ccccc12)C(=O)N1CCC[C@H]1C(=O)N[C@@H](CCCCN)C(=O)N[C@@H](Cc1c[nH]c2ccccc12)C(=O)N1CCC[C@H]1C(=O)N[C@@H](Cc1c[nH]c2ccccc12)C(=O)N[C@@H](CCCN=C(N)N)C(=O)N[C@@H](CCCN=C(N)N)C(N)=O` [ILPWKWPKWPWRR], the MIC in assay [3] worked out at 5.41 µM (≈ 9.99 µg/mL); in [4] it was 2.7 µM (≈ 5 µg/mL); in assay [5] it was 10.8 µM (≈ 20 µg/mL); in assay [6], 2.7 µM (≈ 5 µg/mL); in [7] it was 2.7 µM (≈ 5 µg/mL); in assay [8] it was 2.7 µM (≈ 5 µg/mL).

Turning to `C[C@@H](O)[C@H](NC(=O)[C@H](CCCCN)NC(=O)[C@H](Cc1c[nH]c2ccccc12)NC(=O)[C@H](Cc1c[nH]c2ccccc12)NC(=O)[C@@H](NC(=O)[C@H](CCCCN)NC(=O)[C@@H](N)CCCCN)[C@@H](C)O)C(=O)N[C@@H](Cc1c[nH]c2ccccc12)C(=O)N[C@@H](Cc1c[nH]c2ccccc12)C(=O)N[C@H](C(=O)N[C@@H](CCCCN)C(=O)N[C@@H](Cc1c[nH]c2ccccc12)C(=O)N[C@@H](CO)C(=O)N[C@@H](CCC(N)=O)C(=O)N1CCC[C@H]1C(=O)O)[C@@H](C)O` [KKTWWKTWWTKWSQP], the MIC in [3] worked out at 2 µM (≈ 4.15 µg/mL); in assay [4], 4 µM (≈ 8.31 µg/mL); in assay [5] it was 8 µM (≈ 16.6 µg/mL); in [6], 4 µM (≈ 8.31 µg/mL); in assay [7], 4 µM (≈ 8.31 µg/mL); in assay [8] it was 4 µM (≈ 8.31 µg/mL).

`CC[C@H](C)[C@H](NC(=O)[C@H](CCCN=C(N)N)NC(=O)[C@H](CCC(N)=O)NC(=O)[C@@H](NC(=O)[C@@H](NC(=O)[C@H](CCCN=C(N)N)NC(=O)[C@@H](N)CCCCN)[C@@H](C)CC)C(C)C)C(=O)N[C@@H](CCCCN)C(=O)N[C@@H](CC(=O)O)C(=O)N[C@@H](Cc1c[nH]c2ccccc12)C(=O)N[C@@H](CC(C)C)C(=O)N[C@@H](CCCN=C(N)N)C(N)=O` [KRIVQRIKDWLR]: the MIC in assay [3] worked out at 4 µM (≈ 6.44 µg/mL); in assay [4] it was 2 µM (≈ 3.22 µg/mL); in assay [5] it was 8 µM (≈ 12.9 µg/mL); in assay [6], 4 µM (≈ 6.44 µg/mL); in assay [7], 2 µM (≈ 3.22 µg/mL); in [8], 1 µM (≈ 1.61 µg/mL).

As to `CC[C@H](C)[C@H](NC(=O)[C@H](C)NC(=O)[C@H](CCCN=C(N)N)NC(=O)[C@@H]1CCCN1C(=O)[C@H](CC(C)C)NC(=O)[C@H](CC(N)=O)NC(=O)[C@H](Cc1ccc(O)cc1)NC(=O)CNC(=O)[C@H](C)NC(=O)[C@@H](NC(=O)[C@@H](NC(=O)[C@@H](NC(=O)[C@H](CCCN=C(N)N)NC(=O)[C@@H](NC(=O)[C@@H](NC(=O)[C@H](CC(C)C)NC(=O)[C@H](Cc1ccc(O)cc1)NC(=O)[C@H](Cc1c[nH]c2ccccc12)NC(=O)[C@@H](NC(=O)[C@H](CCCN=C(N)N)NC(=O)[C@H](CCCCN)NC(=O)[C@@H](NC(=O)[C@@H](N)CCCN=C(N)N)C(C)C)C(C)C)C(C)C)[C@@H](C)CC)[C@@H](C)O)C(C)C)[C@@H](C)CC)C(=O)N[C@@H](CCCCN)C(=O)N[C@@H](CCCCN)C(=O)N[C@@H](CCCCN)C(=O)O` [RVKRVWYLVIRTVIAGYNLPRAIKKK], the MIC in assay [3] came out at 8 µM (≈ 25.1 µg/mL); in assay [4] it was 4 µM (≈ 12.6 µg/mL); in [5], 8 µM (≈ 25.1 µg/mL); in assay [6], 8 µM (≈ 25.1 µg/mL); in assay [7], 8 µM (≈ 25.1 µg/mL); in [8], 8 µM (≈ 25.1 µg/mL).

In the case of `C[C@@H](O)[C@H](NC(=O)[C@H](CCCN=C(N)N)NC(=O)[C@H](CCCN=C(N)N)NC(=O)[C@H](CC(N)=O)NC(=O)[C@H](Cc1c[nH]c2ccccc12)NC(=O)[C@H](CCCN=C(N)N)NC(=O)[C@H](Cc1c[nH]c2ccccc12)NC(=O)[C@@H](N)CCCN=C(N)N)C(=O)NCC(=O)N[C@@H](CCCN=C(N)N)C(=O)N[C@@H](Cc1c[nH]c2ccccc12)C(=O)N[C@@H](CCCN=C(N)N)C(=O)N[C@@H](Cc1c[nH]c2ccccc12)C(=O)N[C@@H](Cc1ccc(O)cc1)C(=O)O` [RWRWNRRTGRWRWY], in assay [9], the minimum inhibitory concentration (MIC) turned out to be 12.5 µM (≈ 26.7 µg/mL).

These data come from DBAASP.
